This note sets out measurements from US10457691B2, “Macrocyclic kinase inhibitors and uses thereof” (Dana-Farber Cancer Institute, Inc., priority 2014, dated 2019).

What all share (assay type): biochemical
Common to all, as to conditions: read-out: Activity of the protein kinase when treated with compound I-1 (% control)

The target in assay [1] is p38a MAPK (Homo sapiens, UniProt Q16539). Nature of the assay: Protein kinase assay ([γ-32P] ATP), p38a MAPK. The procedure: (§1) In another set of experiments, the activities of the compounds described herein against various protein kinases were determined according to the methods reported in Hastie et al., Nature Protocols, 2006, 1, 968-971.
(§2) Enzyme dilution buffer. This buffer consisted of 50 mM Tris-HCl, pH 7.5, 0.1 mM EGTA, 1 mg ml^−1 bovine serum albumin and 0.1% (vol/vol) 2-mercaptoethanol.
(§3) 10× concentrated assay buffer. An assay buffer of 500 mM Tris-HCl, pH 7.5, 1 mM EGTA, and 100 mM magnesium acetate was used for assay of a wide variety of protein kinases. In some experiments, other cofactors were included (e.g., calcium ions and calmodulin were included for assay of calcium-calmodulindependent protein kinases).
(§4) 1 mM [γ-^32P] ATP. The specific activity of the [γ-^32P] ATP solution was 1×10^5 to 1×10^6 c.p.m. per nmol depending on what was needed to produce an optimal signal/noise ratio. […] To measure the concentration of ATP, a sample of such a stock solution was diluted to 20 μM, and the absorbance of the diluted sample was measured at 259 nm. The absorbance of a 20-μM stock solution of ATP at 259 nm was about 0.31. […] ATP to produce a radioactivity of 1×10^5 to 1×10^6 c.p.m. per nmol. […]
(§5) 13) Measure radioactivity in the samples by Cerenkov counting (e.g., without liquid scintillation fluid) in a liquid scintillation counter using a “^32P program”. […]

Assay [2] concerns the target EPH-A2 (Homo sapiens, UniProt P29317). Nature of the assay: Protein kinase assay ([γ-32P] ATP), EPH-A2. The procedure:
as §1, §2, §3, §4, §5

Assay [3] concerns the target TESK1 (Homo sapiens, UniProt Q15569). The experiment in a line: Protein kinase assay ([γ-32P] ATP), TESK1. As for the experimental part: as §1, §2, §3, §4, §5
Assay [4] concerns the target MARK4 (Homo sapiens, UniProt Q96L34). Nature of the assay: Protein kinase assay ([γ-32P] ATP), MARK4. The procedure: as §1, §2, §3, §4, §5
Assay [5] addresses PKA (Homo sapiens, UniProt P17612). Nature of the assay: Protein kinase assay ([γ-32P] ATP), PKA. As for the experimental part: as §1, §2, §3, §4, §5
Assay [6] has as its target PLK1 (Homo sapiens, UniProt P53350). The experiment in a line: Protein kinase assay ([γ-32P] ATP), PLK1. As for the experimental part:
as §1, §2, §3, §4, §5

The target of assay [7] is CHK1 (Homo sapiens, UniProt O14757). Nature of the assay: Protein kinase assay ([γ-32P] ATP), CHK1. The procedure: as §1, §2, §3, §4, §5
In assay [8] the target is HIPK2 (Homo sapiens, UniProt Q9H2X6). The experiment in a line: Protein kinase assay ([γ-32P] ATP), HIPK2. As for the experimental part:
as §1, §2, §3, §4, §5

Assay [9] has as its target IRAK1 (Homo sapiens, UniProt P51617). Nature of the assay: Protein kinase assay ([γ-32P] ATP), IRAK1. The procedure: as §1, §2, §3, §4, §5
Assay [10] addresses EIF2AK3 (Homo sapiens, UniProt Q9NZJ5). The experiment in a line: Protein kinase assay ([γ-32P] ATP), EIF2AK3. The procedure:
as §1, §2, §3, §4, §5

[11] abbreviates: 0.1 μM of compound I-1, DMSO control = 100%.
Where [12] appears, read: 1 μM of compound I-1, DMSO control = 100%.

Chain of PLK1 (P53350 whole entry, species assumed): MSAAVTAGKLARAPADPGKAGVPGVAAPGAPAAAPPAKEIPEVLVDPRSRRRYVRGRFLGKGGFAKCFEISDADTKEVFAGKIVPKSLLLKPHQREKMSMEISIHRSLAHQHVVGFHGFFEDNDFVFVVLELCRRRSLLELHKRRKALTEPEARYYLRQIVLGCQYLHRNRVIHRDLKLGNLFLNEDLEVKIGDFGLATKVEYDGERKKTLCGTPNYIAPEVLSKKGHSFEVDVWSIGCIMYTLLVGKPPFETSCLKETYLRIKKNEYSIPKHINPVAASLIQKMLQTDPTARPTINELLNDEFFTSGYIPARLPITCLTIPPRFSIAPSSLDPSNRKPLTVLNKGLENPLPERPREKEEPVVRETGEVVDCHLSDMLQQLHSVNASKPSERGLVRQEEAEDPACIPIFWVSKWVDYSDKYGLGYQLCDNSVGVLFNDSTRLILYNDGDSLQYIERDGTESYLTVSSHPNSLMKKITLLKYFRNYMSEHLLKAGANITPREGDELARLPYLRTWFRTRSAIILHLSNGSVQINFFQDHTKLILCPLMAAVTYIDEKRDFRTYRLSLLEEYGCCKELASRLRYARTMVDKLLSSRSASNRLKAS
Chain of EIF2AK3 (Q9NZJ5 30-1116): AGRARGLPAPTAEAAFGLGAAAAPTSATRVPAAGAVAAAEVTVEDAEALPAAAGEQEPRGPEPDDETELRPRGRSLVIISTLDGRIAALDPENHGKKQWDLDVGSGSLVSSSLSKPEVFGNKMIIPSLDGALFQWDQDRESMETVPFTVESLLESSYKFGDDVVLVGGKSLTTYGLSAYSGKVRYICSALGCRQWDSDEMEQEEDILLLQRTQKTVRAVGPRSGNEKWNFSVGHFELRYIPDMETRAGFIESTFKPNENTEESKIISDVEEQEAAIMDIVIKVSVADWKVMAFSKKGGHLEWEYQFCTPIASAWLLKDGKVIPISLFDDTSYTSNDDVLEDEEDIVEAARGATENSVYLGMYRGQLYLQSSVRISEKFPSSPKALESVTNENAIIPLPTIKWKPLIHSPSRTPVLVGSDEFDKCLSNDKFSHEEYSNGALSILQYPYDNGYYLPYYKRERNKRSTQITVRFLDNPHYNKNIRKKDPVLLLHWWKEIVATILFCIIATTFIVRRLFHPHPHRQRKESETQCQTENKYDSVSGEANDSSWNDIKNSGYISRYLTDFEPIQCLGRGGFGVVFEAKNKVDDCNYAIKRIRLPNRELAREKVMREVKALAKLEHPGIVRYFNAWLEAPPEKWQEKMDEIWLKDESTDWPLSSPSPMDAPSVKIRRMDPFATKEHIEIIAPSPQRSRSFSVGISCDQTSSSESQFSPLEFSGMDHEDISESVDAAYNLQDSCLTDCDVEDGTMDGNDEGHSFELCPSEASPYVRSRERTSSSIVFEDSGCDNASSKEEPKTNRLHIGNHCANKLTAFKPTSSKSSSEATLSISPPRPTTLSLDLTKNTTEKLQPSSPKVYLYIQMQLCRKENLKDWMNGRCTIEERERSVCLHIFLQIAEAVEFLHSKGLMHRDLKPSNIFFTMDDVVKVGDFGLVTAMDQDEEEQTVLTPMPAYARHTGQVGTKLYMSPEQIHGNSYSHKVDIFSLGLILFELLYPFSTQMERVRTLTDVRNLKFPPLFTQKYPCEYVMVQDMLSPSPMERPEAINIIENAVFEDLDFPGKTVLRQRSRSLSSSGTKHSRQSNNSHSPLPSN
Chain of MARK4 (Q96L34 whole entry): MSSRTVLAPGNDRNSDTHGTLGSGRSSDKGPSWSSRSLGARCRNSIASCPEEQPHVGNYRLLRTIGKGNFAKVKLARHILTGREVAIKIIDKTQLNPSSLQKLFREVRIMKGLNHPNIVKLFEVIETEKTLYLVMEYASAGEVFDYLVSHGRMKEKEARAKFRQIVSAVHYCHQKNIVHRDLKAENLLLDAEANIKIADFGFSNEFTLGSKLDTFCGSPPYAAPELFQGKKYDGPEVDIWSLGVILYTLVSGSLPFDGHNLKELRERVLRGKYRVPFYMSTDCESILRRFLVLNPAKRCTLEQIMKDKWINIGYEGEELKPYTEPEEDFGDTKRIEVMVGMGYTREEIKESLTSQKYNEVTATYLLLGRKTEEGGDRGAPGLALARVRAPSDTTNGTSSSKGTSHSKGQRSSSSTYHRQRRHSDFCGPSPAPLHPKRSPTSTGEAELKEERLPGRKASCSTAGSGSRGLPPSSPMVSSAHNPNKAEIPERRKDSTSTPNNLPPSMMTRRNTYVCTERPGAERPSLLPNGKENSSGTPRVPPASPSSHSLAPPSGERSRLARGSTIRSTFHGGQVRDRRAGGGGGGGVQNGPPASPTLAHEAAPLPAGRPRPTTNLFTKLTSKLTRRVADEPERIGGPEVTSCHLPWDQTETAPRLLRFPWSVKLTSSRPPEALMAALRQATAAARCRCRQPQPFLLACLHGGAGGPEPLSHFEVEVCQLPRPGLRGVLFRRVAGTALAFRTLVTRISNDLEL
Chain of EPH-A2 (P29317 24-976): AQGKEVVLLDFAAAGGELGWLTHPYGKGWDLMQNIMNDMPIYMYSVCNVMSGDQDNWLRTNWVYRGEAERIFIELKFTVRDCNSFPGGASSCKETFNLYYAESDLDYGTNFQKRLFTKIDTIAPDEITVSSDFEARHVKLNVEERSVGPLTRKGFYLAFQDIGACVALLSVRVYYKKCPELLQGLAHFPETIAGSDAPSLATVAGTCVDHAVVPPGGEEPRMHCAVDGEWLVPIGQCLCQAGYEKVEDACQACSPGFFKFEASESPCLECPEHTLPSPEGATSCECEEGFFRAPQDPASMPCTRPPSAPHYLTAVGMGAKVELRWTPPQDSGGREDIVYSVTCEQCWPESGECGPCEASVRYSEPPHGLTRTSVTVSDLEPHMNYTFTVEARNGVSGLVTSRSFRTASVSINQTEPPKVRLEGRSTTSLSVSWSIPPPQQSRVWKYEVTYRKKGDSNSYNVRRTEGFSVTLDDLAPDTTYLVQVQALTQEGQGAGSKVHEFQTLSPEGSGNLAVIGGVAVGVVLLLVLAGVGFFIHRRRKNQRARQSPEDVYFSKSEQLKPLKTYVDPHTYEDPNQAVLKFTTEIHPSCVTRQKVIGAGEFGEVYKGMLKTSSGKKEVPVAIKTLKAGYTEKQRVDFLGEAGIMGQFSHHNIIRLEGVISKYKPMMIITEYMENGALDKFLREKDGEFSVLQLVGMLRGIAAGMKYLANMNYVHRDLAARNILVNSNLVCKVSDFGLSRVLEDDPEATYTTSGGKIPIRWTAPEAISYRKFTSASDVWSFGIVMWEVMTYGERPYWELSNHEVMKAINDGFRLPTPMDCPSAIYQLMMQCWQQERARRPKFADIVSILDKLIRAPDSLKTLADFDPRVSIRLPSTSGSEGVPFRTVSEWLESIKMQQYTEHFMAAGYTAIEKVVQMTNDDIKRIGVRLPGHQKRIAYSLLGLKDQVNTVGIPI
Chain of TESK1 (Q15569 whole entry, species assumed): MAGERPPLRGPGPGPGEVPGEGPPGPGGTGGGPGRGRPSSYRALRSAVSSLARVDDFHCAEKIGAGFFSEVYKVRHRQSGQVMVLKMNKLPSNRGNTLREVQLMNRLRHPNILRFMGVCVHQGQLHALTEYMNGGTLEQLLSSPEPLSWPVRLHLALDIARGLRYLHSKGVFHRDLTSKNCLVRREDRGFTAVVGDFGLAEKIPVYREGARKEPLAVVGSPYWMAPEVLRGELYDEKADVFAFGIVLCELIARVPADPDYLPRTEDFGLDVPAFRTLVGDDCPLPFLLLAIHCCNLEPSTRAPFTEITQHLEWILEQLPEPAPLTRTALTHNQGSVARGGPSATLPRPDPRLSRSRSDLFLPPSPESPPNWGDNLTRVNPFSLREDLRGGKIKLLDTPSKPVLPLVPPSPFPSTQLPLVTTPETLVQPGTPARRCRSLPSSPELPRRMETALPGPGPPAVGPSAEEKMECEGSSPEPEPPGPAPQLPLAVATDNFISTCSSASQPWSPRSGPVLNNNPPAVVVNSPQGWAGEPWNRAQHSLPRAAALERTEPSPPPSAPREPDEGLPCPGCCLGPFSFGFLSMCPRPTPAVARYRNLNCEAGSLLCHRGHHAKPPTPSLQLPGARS
Chain of CHK1 (O14757 whole entry): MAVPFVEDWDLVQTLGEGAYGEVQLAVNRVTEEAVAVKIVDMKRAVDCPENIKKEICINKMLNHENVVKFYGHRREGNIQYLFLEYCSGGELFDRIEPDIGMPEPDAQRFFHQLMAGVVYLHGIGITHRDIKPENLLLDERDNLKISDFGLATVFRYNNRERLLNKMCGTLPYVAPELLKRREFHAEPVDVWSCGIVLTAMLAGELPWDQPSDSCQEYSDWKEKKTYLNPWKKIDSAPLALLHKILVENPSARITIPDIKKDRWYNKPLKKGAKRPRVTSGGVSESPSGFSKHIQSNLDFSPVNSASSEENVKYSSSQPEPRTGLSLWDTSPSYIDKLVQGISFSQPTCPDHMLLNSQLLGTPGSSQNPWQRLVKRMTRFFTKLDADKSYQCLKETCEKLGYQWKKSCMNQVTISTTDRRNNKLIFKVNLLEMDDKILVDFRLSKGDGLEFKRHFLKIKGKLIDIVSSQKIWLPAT
Chain of p38a MAPK (Q16539 whole entry): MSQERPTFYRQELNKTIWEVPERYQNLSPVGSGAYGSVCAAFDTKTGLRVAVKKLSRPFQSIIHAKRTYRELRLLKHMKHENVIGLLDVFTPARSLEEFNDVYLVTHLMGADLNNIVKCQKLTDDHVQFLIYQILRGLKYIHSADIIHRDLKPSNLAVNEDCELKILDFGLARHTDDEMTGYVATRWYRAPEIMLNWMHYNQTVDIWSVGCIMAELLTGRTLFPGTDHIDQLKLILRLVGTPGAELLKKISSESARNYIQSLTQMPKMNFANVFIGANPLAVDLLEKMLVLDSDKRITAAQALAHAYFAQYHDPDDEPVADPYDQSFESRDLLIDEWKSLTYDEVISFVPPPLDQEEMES

As for `Cc1cccc(C)c1NC(=O)N1C/C=C\COc2cccc(c2)Nc2cc1ncn2` [Compound I-1], the remaining activity at 0.1 µM in assay [1] (setting [11]) is 79%; in assay [2] (setting [11]), 11%; in [3] (setting [11]), 40%; in [4] (setting [11]) it was 103%; in [5] (setting [11]), 105%; in assay [6] (setting [11]), 104%. Moreover, the remaining activity at 0.1 µM in assay [7] (setting [11]) came to 99%; in assay [8] (setting [11]) it was 110%; in assay [9] (setting [11]) it was 105%; in [10] (setting [11]) it was 97%. Moreover, the remaining activity at 1 µM in [1] (setting [12]) turned out to be 14%; in assay [2] (setting [12]) it was 5%; in [3] (setting [12]) it was 21%; in assay [4] (setting [12]), 81%; in assay [5] (setting [12]) it was 88%; in assay [6] (setting [12]) it was 101%. Also, the remaining activity at 1 µM in [7] (setting [12]) is 94%; in [8] (setting [12]), 91%; in assay [9] (setting [12]), 83%; in assay [10] (setting [12]), 80%.
